From patent US10968169B2, “Urea derivative” (Daiichi Sankyo Company, Limited, priority 2016, dated 2021)

Legend:
[1] = target: tryptophanase of Bacteroides thetaiotamicron (Bacteroides thetaiotaomicron, UniProt Q8A7N2); experiment: Tryptophanase enzyme inhibitory activity (LDH-coupled NADH loss); format: biochemical; conditions: L-tryptophan 10 mM, 37° C., absorbance at 340 nm; read-out: Bacteroides Activity of Inhibiting Tryptophanase (IC50)
Protocol: Tryptophanase inhibitory activity was evaluated by a method using lactate dehydrogenase (LDH). The reaction time-dependent reduction in NADH conjugated with the enzymatic reaction, with LDH, of pyruvic acid produced through the enzymatic reaction of L-tryptophan as a substrate with tryptophanase, was measured with a spectrophotometer (Phillips-R S et al., Biochemistry, 23, 6228-6234 (1984)). Enzyme inhibitory activity obtained without adding a test compound (by adding DMSO alone) in the presence of tryptophanase was used as a control. As the enzyme, tryptophanase of Bacteroides thetaiotamicron (Genbank accession number: HC914434.1) was used. A test compound solution was prepared by dissolving each test compound in DMSO in an arbitrary concentration (from 30 mM to 30 nM at 10-fold common ratio). LDH, NADH and L-tryptophan were prepared, using distilled water, respectively to concentrations of 80 units/mL, 10 mM and […]. Bacteroides tryptophanase was prepared to 30 mg/mL. A potassium phosphate buffer was used as the buffer. [table] A reaction solution A was dispensed at 284.8 μL per well into a 96-well plate, and the test compound solution was added at 3.2 μL per well to obtain a final concentration of 1/100 (reaction solution B). The reaction solution B was incubated at 37° C. for 30 minutes, L-tryptophan was added thereto at 32 μL per well to obtain a final concentration of 10 mM (reaction solution C), and the enzyme reaction was performed at 37° C. over 30 minutes with absorbance at 340 nm measured for monitoring the NADH loss. Based on the NADH loss, the tryptophanase inhibitory activity of the compound was evaluated. Besides, the following compounds were similarly tested instead of the test compound.

Bacteroides = experiment: Indole production suppressing effect in viable bacteria; format: cell-based; conditions: Bacteroides, indole concentration in culture supernatant, read-out: Eroides Activity of Inhibiting Indole Production(IC50)
Protocol: The effect of a tryptophanase inhibitory compound to suppress indole production from a viable bacterium can be evaluated through the following operation. When E. coli (Escherichia Coli) is used as a strain known to produce indole, the strain is cultured in an LB medium at 37° C. for 12 to 18 hours under anaerobic conditions, and then, suspended in an assay medium (5 mM L-Tryptophan/PBS(+)/25 mM HEPES (pH8)) in such a manner as to obtain O.D. of about 0.3. When bacteroides is used, the strain is cultured in a modified GAM medium at 37° C. for 12 to 18 hours under anaerobic conditions, and then suspended in an assay medium (5 mM L-Tryptophan/PBS(+)/25 mM HEPES (pH8)) in such a manner as to obtain O.D. of about 1.1. The thus obtained viable bacterial suspension prepared to have a final concentration of a compound of 1 μM to 10 mM is dispensed at 200 μL per well into a 96-well plate and cultured at 37° C. for 2 to 4 hours under anaerobic conditions, and O.D., an ATP concentration (that can be quantitatively determined by using BacTiter-Glo (Promega Corporation)) and an indole concentration in the culture supernatant (that can be quantitatively determined by utilizing Ehrlich reaction) are measured. The effect of the tryptophanase inhibitory compound to suppress indole production from a viable bacterium can be evaluated depending on the degree of lowering of the indole concentration in the culture supernatant. It can be checked whether or not the effect is derived from a function other than tryptophanase inhibition, such as a bactericidal function or a bacterial growth inhibitory function, depending on lowering of the O.D. or reduction in the ATP concentration or by performing a generally practiced antibacterial activity test (a MIC (minimum growth inhibition concentration) test) using levofloxacin or the like as a positive control. The activities of inhibiting indole production of the compounds of the respective examples shown in Table 11 were measured by the above-described method using Bacteroides to evaluate the effect of inhibiting indole production.

[2] = system: indoxyl sulfate concentration in the plasma; experiment: Effect of reducing indoxyl sulfate concentration in the plasma of mice; format: in vivo, male BALB/c mouse; conditions: oral
Protocol: An effect of a tryptophanase inhibitory compound to reduce an indoxyl sulfate concentration in the plasma of a mouse can be evaluated through the following operation.
After fasting a male BALB/c mouse overnight, a tryptophanase compound dissolved or suspended at a concentration of 0.01 to 10 mg/mL in a 0.5% methylcellulose (MC) solution used as a solvent and a 0.5% MC solution are orally administered by gavage at a dose of 10 mL/kg respectively to a test compound group and to a solvent control group. When 30 minutes have elapsed after the administration of the test compound or the solvent, L-tryptophan, that is, a substrate of tryptophanase, is orally administered by gavage at a dose of 1 to 3 g/kg. The L-tryptophan is suspended in a 0.5% tragacanth solution. For 12 hours after the administration of the L-tryptophan, blood is collected over time from a tail vein by using a hematocrit tube. The thus obtained blood is centrifuged at 11,000 rpm for 5 minutes to collect plasma, and the indoxyl sulfate concentration in the plasma is measured singly by liquid chromatography (fluorescence detection) or its combination with a mass spectrometer used subsequently. The indoxyl sulfate concentration in the plasma of the test compound group against the indoxyl sulfate concentration in the plasma of the solvent control group is calculated as, for example, a ratio of the area under a curve of the indoxyl sulfate concentration, and thus, the efficacy of each compound in a living body can be compared.
The indoxyl sulfate concentrations in plasma obtained by using the compounds of the respective examples shown in Table 12 below were measured by the above-described method to evaluate the effect of reducing indoxyl sulfate concentration.

Chain of tryptophanase of Bacteroides thetaiotamicron (Q8A7N2 entry or part of it, change not shown): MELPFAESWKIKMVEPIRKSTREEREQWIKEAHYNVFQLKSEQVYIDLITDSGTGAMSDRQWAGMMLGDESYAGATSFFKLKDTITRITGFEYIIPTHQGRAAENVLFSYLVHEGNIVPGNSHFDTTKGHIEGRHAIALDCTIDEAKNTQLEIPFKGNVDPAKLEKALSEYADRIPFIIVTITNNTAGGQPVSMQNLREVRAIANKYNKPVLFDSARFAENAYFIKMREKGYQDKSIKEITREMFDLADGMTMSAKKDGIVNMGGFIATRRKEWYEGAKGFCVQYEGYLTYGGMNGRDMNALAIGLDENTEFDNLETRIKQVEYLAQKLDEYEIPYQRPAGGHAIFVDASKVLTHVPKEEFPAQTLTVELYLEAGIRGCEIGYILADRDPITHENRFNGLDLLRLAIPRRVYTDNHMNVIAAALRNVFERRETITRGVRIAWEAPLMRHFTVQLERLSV

Row | IC50 [1] | SMILES | IC50 (Bacteroides) | Indoxyl Sulfate Reduction Effect in Male BALB/c Mouse Plasma (Indoxyl sulfate reduction effect in plasma 6 hours after administering L-tryptophan: ED75−, mg/kg) [2]
1 | 20 µM | CCC(CC)(NC(=O)Nc1ccccc1)C(=O)O [Compound A, 2-ethyl-2-[(phenylcarbamoyl)amino]butanoic acid] | 8 µM | 1 mg/kg
2 | 7.9 µM | CC[C@@](C)(NC(=O)Nc1ccc(I)cc1)C(=O)O [Example 31, (−)-N-[(4-Iodophenyl)carbamoyl]-D-isovaline] | < 3 µM | 1 mg/kg
3 | 6 µM | CCC(CC)(NC(=O)Nc1csc(Cl)c1)C(=O)O [Example 27, 2-{[(5-Chlorothiophen-3-yl)carbamoyl]amino}-2-ethylbutanoic acid] | 5 µM | 1 mg/kg
